{"source": "paper PMC10987543", "about": "(Cell Death Discovery, 2024)", "key": {"4T1 cells [1]": {"tested_on": "4T1 cells", "assay": "Calcein-AM live cell imaging of cytosol release", "type": "cell-based, murine", "method": "(§1) Fluorescence labeling of cells was performed by seeding 5.0 × 10^4 4T1 cells in a 35 mm dish on a collagen-coated No. 1.5 coverslip with a 14 mm glass diameter (MatTek, Ashland, MA). After overnight incubation, the cells were washed once with serum-free media and replaced with fresh serum-free media. For cell cytosol labeling, Calcein-AM (Thermo Fisher Scientific, C1430) was added at a final concentration of 5 µg/mL and incubated for 10 min. For mitochondrial membrane labeling, JC-1 (Thermo Fisher Scientific, T3168) was added at a final concentration of 10 µg/mL and incubated for 10 min. To monitor the activity of caspases, CellEvent Caspase-3/7 Red detection reagents (Thermo Fisher Scientific, C10423) were used following the manufacturer’s instructions. For nuclear staining, Hoechst 33342 (Cell Signaling Technology, #4082) was added at a final concentration of 5 µg/mL and incubated for 10 min.\nCells were imaged on either a Zeiss LSM 700 or a 3i spinning disk confocal microscope. Samples were imaged with optimized microscope settings. Z-stack, time-lapse, or multi-channel acquisition settings were adjusted based on the experimental requirements. Images were then acquired with the appropriate excitation and emission wavelengths for each fluorophore.\n(§2) Image processing was performed using Fiji software. For each image/video, the brightness and the contrast were adjusted. The time stamp and the scale bar were added. For quantification, CellProfiler was used. After cell segmentation based on the nucleus, the intensity of the signal of interest was quantified for each cell. Based on the intensity, each cells were labeled as positive or negative and the fraction of positive cells was calculated."}, "4T1 cells [2]": {"tested_on": "4T1 cells", "assay": "Quantification of HMGB-1 release (ELISA)", "type": "cell-based, murine", "conditions": "100 µM, 6 h, N = 3", "method": "(§3) Fifteen thousand cells of 4T1 cells or CT26 cells in growth media were seeded in wells of a 96-well plate. After 12 h, the media was replaced with serum-free media, and the cells were treated with the corresponding concentration of CKS1. The cells were treated with CKS1 for 6 h and the supernatant was collected from each well. After filtering the supernatant with a 0.2 µm pore filter (Corning, 431229), the amount of HMGB-1 in the supernatant was quantified using the Mouse/Rat HMGB1 ELISA kit (arigo biolaboratories, ARG81310)."}, "CT26 cells": {"tested_on": "CT26 cells", "assay": "Quantification of HMGB-1 release (ELISA)", "type": "cell-based, murine", "conditions": "100 µM, 6 h, N = 3", "method": "as §3"}, "caspase-3": {"tested_on": "caspase-3", "assay": "Caspase-3 activity assay in cell lysate", "type": "cell-based, murine", "conditions": "4T1 cells, 100 µM, N = 3", "method": "Ten thousand 4T1 cells were seeded in 96-well plates and incubated overnight. After CKS1 treatment, the cells were lysed using a lysis buffer (Cell Signaling Technology, #7018). The activity of caspase-3 in the cell lysate was quantified using the caspase-3 activity assay kit (Cell Signaling Technology, #5723) following the manufacturer’s instructions. Briefly, the cell lysate was incubated with a substrate of caspase-3 which was designed to emit fluorescence when cleaved. After incubation, the fluorescence was measured using a plate reader. The protein concentration of the cell lysate was quantified using the DC protein assay kit (Bio-Rad). The caspase-3 activity was divided by the protein concentration to obtain the caspase-3 activity per µg/mL protein in the cell lysate."}, "4T1 tumors": {"tested_on": "4T1 tumors", "assay": "4T1 triple breast cancer model, intratumoral treatment", "type": "in vivo, Balb/c mice", "method": "The protocols used in this study were approved by the Institutional Care and Use Committee at Johns Hopkins Medical Institutions. Four- to eight-week-old female Balb/c mice were obtained from Charles River (Wilmington, MA). For the 4T1 […] model, 2.5 × 10^4 4T1 cells were injected into the first mammary fat pad of each mouse. For the CT26 colon carcinoma model, 1.0 × 10^6 CT26 cells were injected subcutaneously in the left flank. The sample size was determined so that the final distribution would be close to normal distribution. After 1 week, the animals were randomized into control and CKS1 treatment. During the randomization, the mice were kept in a cage covered with cloth so that the investigator could not see the tumor size. We started daily intratumoral treatment with 40 mg/kg CKS1. For the control group, the matching volume of water was treated intratumorally. The tumor size was measured by using a caliper, and the volume was calculated by using the formula 0.52 × (length) × (width)^2.\nTumors were fixed by immersion in 10% neutral buffered formalin (Millipore Sigma) for 48 h and subsequently dehydrated by immersion in 70%, 90%, and 100% ethanol followed by xylene for two changes of 30 min each. Tissues were embedded in paraffin blocks at 58 °C and sectioned at 4 μm using a microtome. […]"}, "4T1 cells [3]": {"tested_on": "4T1 cells", "assay": "JC-1 mitochondrial membrane potential live cell imaging", "type": "cell-based, murine", "conditions": "100 µM", "method": "as §1\n(§4) Cells were imaged on either a Zeiss LSM 700 or a 3i spinning disk confocal microscope. Samples were imaged with optimized microscope settings. […]\nas §2, with “For each image/video, the brightness and the contrast were adjusted. The time stamp and the scale bar were added.” left out"}, "caspase-3 or caspase-7": {"tested_on": "caspase-3 or caspase-7", "assay": "CellEvent Caspase-3/7 live cell imaging", "type": "cell-based, murine", "conditions": "4T1 cells, 100 µM", "method": "as §1, §4\nas §2, with “For each image/video, the brightness and the contrast were adjusted. The time stamp and the scale bar were added.” left out"}, "4T1 cells [4]": {"tested_on": "4T1 cells", "assay": "Transmission electron microscopy of treated cells", "type": "cell-based, murine", "conditions": "100 µM", "method": "Samples were fixed in 2.5% glutaraldehyde, 3 mM MgCl2 in 0.1 M sodium cacodylate buffer, pH 7.2 overnight at 4 °C. After buffer rinse, samples were postfixed in 2% osmium tetroxide in 0.1 M sodium cacodylate for at least 1 h (no more than two) on ice in the dark. After osmium, samples were rinsed in 0.1 M Maleate buffer (pH 6.2), followed by uranyl acetate in 0.1 M Maleate (0.22 µm filtered, 1 h, dark), dehydrated in a graded series of ethanol and embedded in Epon (PolySci) resin. Samples were polymerized at 60 °C overnight. Thin sections, 60–90 nm, were cut with a diamond knife on a Leica UCT ultramicrotome and picked up with 2 × 1 mm Formvar copper slot grids. Grids were stained with 2% uranyl acetate (aq.) followed by lead citrate and observed with a Hitachi 7600 TEM at 80 kV. Images were captured with an AMT CCD XR80 (8-megapixel camera—side mount AMT XR80—high-resolution high-speed camera)."}}, "note": "“Also recorded” adds a separate entry of the source. Ends that are not written are not given here."}
{"substance": "NGRKACLNPASPIVKKIIEKMLNS-NH2 [CKS1, Chemokinostatin-1]", "values": [{"measurement": "time to release of cytosol (calcein) after treatment", "setting": "4T1 cells [1]; 4T1 cells stained with calcein-AM, 100 µM, representative of N = 3", "result": "15 to 30", "unit": "min"}, {"measurement": "fraction of cancer cells with damaged cell membrane", "setting": "4T1 cells [1]; concentration significantly higher than the IC50 value", "result": "~100", "unit": "%"}, {"measurement": "release of HMGB-1 in the culture media", "setting": "4T1 cells [2]", "result": "weak"}, {"measurement": "release of HMGB-1 in the culture media", "setting": "CT26 cells", "result": "significant release of HMGB-1"}, {"measurement": "caspase-3 activity in cell lysate", "setting": "caspase-3; 30 min", "result": "not activated"}, {"measurement": "caspase-3 activity in cell lysate", "setting": "caspase-3; 4 h", "result": "activated after 4 h"}, {"measurement": "tumor growth (tumor volume)", "setting": "4T1 tumors; 4T1 tumors, 40 mg/kg intratumoral daily from day 7, N = 15, 40 mg/kg", "result": "inhibited; also recorded: relatively modest response"}, {"measurement": "tumor necrosis (H&E stain)", "setting": "4T1 tumors; established 4T1 tumors, intratumoral injection, 24 h, representative of N = 3", "result": "Necrosis was observed"}, {"measurement": "mitochondrial membrane potential (JC-1 fluorescence)", "setting": "4T1 cells [3]", "result": "rapid switch of JC-1 emitted fluorescence from red to green"}, {"measurement": "fraction of cells with activated caspases", "setting": "caspase-3 or caspase-7", "result": "increased over time"}, {"measurement": "cell membrane integrity by electron microscopy", "setting": "4T1 cells [4]; 30 min", "result": "ruptured after 30 min"}, {"measurement": "cell morphology by electron microscopy", "setting": "4T1 cells [4]; 6 h", "result": "apoptotic morphology"}]}
